Some test systems named below: SF-539 CNS; LOX IMVI melanoma; HS 578T breast; HOP-62 NSCLC; SR leukemia; NCI/ADR-RES ovarian; SNB-75 CNS; UO-31 renal; HCT-116 colon; SK-OV-3 ovarian.
Common to all, as to test: NCI tumour cell line growth inhibition, 48 h

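Tested at 5 concentrations; 48 h exposure; 96-well plates; endpoints linearly interpolated, else capped at highest concentration. The concentration for 50% growth inhibition is given as GI50. Definition used: TGI = concentration required for complete inhibition of growth.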

With `COC(CCP(=O)(c1ccccc1)c1ccccc1)(C(=O)c1ccccc1)c1ccccc1` (centres undefined), the GI50 in the assay with SF-539 CNS was 10.2 µM; in the assay with LOX IMVI melanoma, 5.12 µM; with HS 578T breast it was 4.81 µM; with HOP-62 NSCLC it was 11 µM; in the assay with SR leukemia it was 0.967 µM; with NCI/ADR-RES ovarian, 4.93 µM. Moreover, the GI50 with SNB-75 CNS was 5.76 µM; in the assay with UO-31 renal it was 2.46 µM; with HCT-116 colon, 4.48 µM; in the assay on SK-OV-3 ovarian, 8.05 µM. Besides, the TGI in the assay on SF-539 CNS was 21.9 µM; in the assay with LOX IMVI melanoma, 19.6 µM; in the assay on HS 578T breast it was 23.1 µM; in the assay on HOP-62 NSCLC, 24.8 µM; in the assay with SR leukemia it was over 100 µM; in the assay with NCI/ADR-RES ovarian, 20.9 µM. The TGI with SNB-75 CNS was determined as 22 µM; with UO-31 renal, 16.9 µM; in the assay on HCT-116 colon it was 16.5 µM; with SK-OV-3 ovarian, 21.8 µM.

On to `C#C[C@]1(O)CC[C@H]2[C@@H]3CC=C4c5sc(N=C(N)N)nc5CC[C@]4(C)[C@H]3CC[C@@]21C`, for which the GI50 in the assay with SF-539 CNS was 0.233 µM; with LOX IMVI melanoma it was 0.443 µM; in the assay with HS 578T breast it was 0.243 µM; in the assay on HOP-62 NSCLC it was 0.984 µM; in the assay on SR leukemia it was 0.348 µM; in the assay with NCI/ADR-RES ovarian it was 1.44 µM. The GI50 was 0.152 µM in the assay with SNB-75 CNS, 0.307 µM with UO-31 renal, 0.989 µM in the assay with HCT-116 colon and 1.05 µM with SK-OV-3 ovarian. For the same compound, the TGI was determined as 1.12 µM with SF-539 CNS; 1.63 µM in the assay on LOX IMVI melanoma; 1.11 µM with HS 578T breast; 2.62 µM in the assay with HOP-62 NSCLC; 1.98 µM in the assay with SR leukemia; 3.59 µM in the assay with NCI/ADR-RES ovarian. Further, the TGI is 1.32 µM in the assay with SNB-75 CNS, 0.931 µM with UO-31 renal, 2.29 µM in the assay on HCT-116 colon and 2.33 µM in the assay on SK-OV-3 ovarian.

As for `CCC[C@H](N[C@@H]1CCc2cc(F)cc(F)c2C1)C(=O)Nc1cn(C(C)(C)CNCC(C)(C)C)cn1`, the GI50 with SF-539 CNS is 16.7 µM; with LOX IMVI melanoma it was 15.5 µM; in the assay on HS 578T breast, 15.3 µM; in the assay on HOP-62 NSCLC, 20.8 µM; in the assay on SR leukemia it was 14.2 µM; in the assay with NCI/ADR-RES ovarian, 15.3 µM. Besides, the GI50 in the assay on SNB-75 CNS is 3.68 µM; in the assay on UO-31 renal, 6.33 µM; in the assay on HCT-116 colon, 5.31 µM; in the assay with SK-OV-3 ovarian it was 26.3 µM. The TGI was 34.6 µM in the assay with SF-539 CNS; 30.6 µM in the assay with LOX IMVI melanoma; 64.4 µM in the assay on HS 578T breast; 75.1 µM with HOP-62 NSCLC; over 79 µM with SR leukemia; over 81 µM with NCI/ADR-RES ovarian. Also, the TGI in the assay with SNB-75 CNS is 64.8 µM; with UO-31 renal, 22.1 µM; in the assay with HCT-116 colon, 20.2 µM; with SK-OV-3 ovarian, over 100 µM.

For `CCCCCCCCCCCCCCCc1cc(O)ccc1N`, the GI50 with SF-539 CNS was 0.702 µM; in the assay with LOX IMVI melanoma, 1.39 µM; with HS 578T breast, 17 µM; with HOP-62 NSCLC it was over 100 µM; in the assay with SR leukemia, 2.18 µM; in the assay with NCI/ADR-RES ovarian, 5.81 µM. Further, the GI50 in the assay on SNB-75 CNS is 4.76 µM; in the assay on UO-31 renal, 0.685 µM; in the assay with HCT-116 colon it was over 100 µM; in the assay with SK-OV-3 ovarian, 31.7 µM. Also, the TGI in the assay with SF-539 CNS is 2.19 µM; in the assay with LOX IMVI melanoma it was 9.41 µM; in the assay with HS 578T breast, 99.4 µM; in the assay on HOP-62 NSCLC it was over 100 µM; with SR leukemia it was 23.4 µM; in the assay on NCI/ADR-RES ovarian it was 68.8 µM. For the same compound, the TGI with SNB-75 CNS was 68.9 µM; with UO-31 renal, 9.36 µM; in the assay on HCT-116 colon it was over 100 µM; with SK-OV-3 ovarian it was over 76.4 µM.

Regarding `O=[N+]([O-])c1ccccc1N=Nc1c(O)[nH]c2ccccc12`, the TGI is 23.9 µM in the assay with SF-539 CNS; over 53 µM with LOX IMVI melanoma; over 100 µM in the assay with HS 578T breast; over 48 µM with HOP-62 NSCLC; over 100 µM in the assay with SR leukemia; over 58.8 µM with NCI/ADR-RES ovarian. Further, the TGI was 68.8 µM with SNB-75 CNS, over 52.8 µM in the assay on UO-31 renal, over 54.2 µM in the assay on HCT-116 colon and over 53.7 µM with SK-OV-3 ovarian.

For the compound `CC(ONC(=O)c1cc(C(F)(F)F)cc(C(F)(F)F)c1)C(=O)Nc1ccc(Cl)cc1` (centres undefined), the GI50 is 4.82 µM in the assay with SF-539 CNS; 4.02 µM with LOX IMVI melanoma; 5.43 µM with HS 578T breast; 8.45 µM in the assay with HOP-62 NSCLC; 6.2 µM in the assay with NCI/ADR-RES ovarian; 15 µM in the assay with SNB-75 CNS. Moreover, the GI50 was 4.85 µM in the assay on UO-31 renal, 4.97 µM with HCT-116 colon and 12.9 µM in the assay with SK-OV-3 ovarian. The TGI in the assay with SF-539 CNS is 19 µM; in the assay on LOX IMVI melanoma it was 14 µM; in the assay with HS 578T breast it was 42.4 µM; with HOP-62 NSCLC it was 24.6 µM; with SR leukemia it was 1.16 µM; in the assay with NCI/ADR-RES ovarian, 41.6 µM. Further, the TGI is 70.7 µM in the assay with SNB-75 CNS, 21.5 µM in the assay with UO-31 renal, 16.4 µM in the assay with HCT-116 colon and over 85.8 µM in the assay with SK-OV-3 ovarian.

`O=C1c2ccccc2C(=O)N1c1ccc(S(=O)(=O)Nc2ncccn2)cc1`: the GI50 with SF-539 CNS, with LOX IMVI melanoma, in the assay on HS 578T breast, with HOP-62 NSCLC, in the assay with SR leukemia and with NCI/ADR-RES ovarian was over 100 µM in each case. For the same compound, the GI50 in the assay on SNB-75 CNS, with UO-31 renal, with HCT-116 colon and in the assay on SK-OV-3 ovarian was over 100 µM each time. Further, the TGI with SF-539 CNS, in the assay with LOX IMVI melanoma, in the assay with HS 578T breast, in the assay on HOP-62 NSCLC, with SR leukemia and in the assay with NCI/ADR-RES ovarian was over 100 µM in each case. Further, the TGI in the assay on SNB-75 CNS, in the assay with UO-31 renal, in the assay with HCT-116 colon and in the assay on SK-OV-3 ovarian was over 100 µM in each case.

For `O=S1(=O)CCN(Cc2ccccn2)CC1`, the TGI with SF-539 CNS, in the assay with LOX IMVI melanoma, in the assay with HS 578T breast, in the assay with HOP-62 NSCLC, in the assay with SR leukemia and in the assay on NCI/ADR-RES ovarian was over 100 µM in each case. In addition, the TGI with SNB-75 CNS, with UO-31 renal, in the assay with HCT-116 colon and in the assay with SK-OV-3 ovarian was over 100 µM in each case.
